Source: ChEMBL document CHEMBL1142525, “Molecular probes for imaging myelinated white matter in CNS” (J Med Chem, 2008)
The source made the active and inactive calls. No cut-off for these calls is given here.

Columns and labels:
[1] = Displacement of [3H]BMB from Sprague-Dawley rat brain myelin fractions; type: tissue-based
Rattus norvegicus = organism: Rattus norvegicus; assay: Binding affinity to Sprague-Dawley rat brain myelin fractions at 12.5 uM after 1 hr by UV spectrophotometry
Brain [2] = assay: Drug uptake in Swiss Webster mouse brain at 0.185 MBq, iv after 120 mins; type: ADME, organism-based; conditions: in vivo, 2 h
Brain [3] = assay: Drug uptake in Swiss Webster mouse brain at 0.185 MBq, iv after 30 mins; type: ADME, organism-based; conditions: in vivo, 0.5 h
[4] = Partition coefficient, log P in 1-octanol/phosphate buffer at pH 7.40; type: physicochemical; conditions: pH 7.4
Brain [5] = assay: Drug uptake in Swiss Webster mouse brain at 0.185 MBq, iv after 60 mins; type: ADME, organism-based; conditions: in vivo, 1 h

Row | SMILES | Ki [1] [nM] | Activity (Rattus norvegicus) | also measured
1 | CNc1ccc(/C=C/c2ccc(N)cc2)cc1 | 126 | Active | 
2 | Nc1ccc(/C=C/c2ccc([125I])cc2)cc1 |  |  | Drug uptake (Brain [2]): 1.12 % ID/g; Drug uptake (Brain [3]): 2.65 % ID/g; logD [4]: 2.5; Drug uptake (Brain [5]): 2.05 % ID/g
3 | Nc1ccc(/C=C/c2ccc(I)cc2)cc1 | 494 |  | 
4 | CN(C)c1ccc(/C=C/c2ccc(N)cc2)cc1 | 119 | Active | 
5 | Nc1ccc(/C=C/c2ccc(N)cc2)cc1 | 370 |  | 
